# Test results reported in US20110177161A1, “PHARMACEUTICAL COMPOSITIONS OF [5(S)-(2'-HYDROXYETHOXY)-20(S)-CAMPTOTHECIN” (DR. REDDY'S LABORATORIES LIMITED, priority 2007, published 2011).
# Legend:
# [1] = tested on: 34 human cancer cell lines; assay: In vitro cell growth assay, Sulphorhodamine B (SRB); format: cell-based; details: 48 h exposure
# Protocol: Cell proliferation was evaluated by Sulphorhodamine B (SRB) assay where the amount of dye bound to the cells after staining gives a measure of cell growth. Refer to: JNCI, vol 83, No. 11, Jun. 5, 1991, which is incorporated herein by reference.
# Briefly, cells (34 human cancer cell lines represented by bladder, breast, CNS, colon, epidermoid, lung, ovarian, melanoma, prostate, renal and uterine cancers) were seeded on a 96-well cell culture plates at a concentration of 10,000 cells per well and incubated at 37 degree C. in a CO2 incubator. Twenty-four hours later, cells were treated with different concentrations of […] dissolved in DMSO to a final concentration of 0.05% in the culture medium and exposed for 48 h. Cells were fixed by adding ice-cold 50% trichloroacetic acid (TCA) and incubating for 1 h at 4° C. The plates were washed with distilled water, air dried and stained with SRB solution (0.4% wt/vol in 1% Acetic acid) for 10 min at room temperature. Unbound SRB was removed by washing thoroughly with 1% acetic acid and the plates were air-dried. The bound SRB stain was solubilized with 10 mM Tris buffer, and the optical densities were read on a spectrophotometric plate reader at a single wavelength of 515 nm. […] From the optical densities the percentage growths were calculated using the following formulae: […]
# [2] = tested on: Human bone marrow mononuclear cells; assay: Human bone marrow assay (CFU-GM colonies); format: cell-based; details: human
# Protocol: Methocult.TM. GF (Cat No: H4534, Poietics, Biowhittakar, USA) medium comprising Methycellulose in iscove's MDM, Fetal bovine serum, Bovine serum albumin, 2-Mercaptoethanol, L-Glutamine, rhStem cell factor, rhGM-CSF and rhIL-3 was used for the assay. Human bone marrow mononuclear cells (Cat No. 2M-125C, Poietics, Biowhittakar, USA) were mixed with Methocult GF and the cell density was adjusted to 3×10^5 cells/ml. From this preparation, 500 μL aliquots were made and […] of 20× drug solution or vehicle was added to each aliquot and mixed thoroughly. 100 μL of clonogenic medium was plated into each well and the plates were allowed to gel at 4° C. for 15 minutes. Plates were incubated at 37 degree C. in a fully humidified atmosphere of 5% CO2 in an incubator for 14 days. CFU-GM colonies were counted under an inverted microscope as aggregates of 50 cells or more. The percentage colony inhibition was calculated using the following formula: 100−[(number of colonies in drug treated wells/Number of colonies in control wells)×100].
# [3] = tested on: Saos-2 cells over expressing functional BCRP#4; assay: cells; format: cell-based, human; details: Homo sapiens, SAOS-2, 144 h, read-out: BCRP mut#4 (IC50 (nM))
# Protocol: (§1) The anticancer effect of 5(S)-(2′-hydroxyethoxy)-20(S)-camptothecin & 5(R)-(2′-hydroxyethoxy)-20(S)-camptothecin were evaluated versus the racemate 5(RS)-(2′-hydroxyethoxy)-20(S)-camptothecin on Saos-2 cells over expressing functional BCRP#4 and non-functional BCRP mut#10. The human osteosarcoma cell line, Saos-2, was obtained from ATCC (American Type Culture Collection, Cat#HTB-85, Manassas, Va.) and were maintained in DMEM containing 10% fetal bovine serum, 1% penicillin/streptomycin, and 2 mM glutamine. Saos-2 cells were transfected with either BCRP#4 to over express functional BCRP or BCRP#10 to over express non-functional BCRP transporter. The cells were plated in 96-well plates at a density of 1000 cells per each well in a 0.1 ml of medium and allowed to attach overnight. The next morning the medium was gently aspirated and serial dilutions of the compounds to be tested were added. The cells were incubated at 37° C. in a 5% CO2 incubator. After 6 days of exposure to the test drugs, 10µl of Alamar blue was added aseptically to each well and the plates were returned to the incubator for 6 hr. The amount of the fluorescent dye produced was measured on a Cytofluor.RTM. 2300 (Millipore, Bedford, Mass.) using an excitation wavelength of 530 nm and emission wavelength of 590 nm. The relative fluorescence units obtained were used to calculate the percentage growth at each concentration in relation to the untreated control values. From the percentage growth values the IC50 (inhibitory concentration required to inhibit the cell growth by 50% compared to control cells growth) values were derived.
# [4] = tested on: Saos-2 cells over expressing non-functional BCRP mut#10; assay: cells; format: cell-based, human; details: Homo sapiens, SAOS-2, 144 h, read-out: BCRP mut#10 (IC50 (nM))
# Protocol: as §1
smiles,measurement,setting,value
"CC[C@@]1(O)C(=O)OCc2c1cc1n(c2=O)[C@H](OCCO)c2cc3ccccc3nc2-1 [5(R)-(2′-hydroxyethoxy)-20(S)-camptothecin, reference compound]",GI50,[1],14600 nM
same,Safety Margin GI90/GI50,[2],0.06
same,IC50,[3],> 2000 nM
same,IC50,[4],1300 nM
